One test deals with NAMPT (Homo sapiens (Human), UniProt P43490). Put plainly: Assay 1: Biochemical Inhibition Assay (NAMPT enzymatic reaction, NMN quantified by mass spectrometry).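 Also: recombinant His-tagged human NAMPT preincubated with compound 15 min, then reacted 30 min at rt with 1 µM NAM, 100 µM PRPP, 2.5 mM ATP, NMN product read by RapidFire MS, normalized to L-Cystathionine internal standard.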 The conditions noted are these: read-out: Biochemical (IC50).
The next test relates to A2780 cells. Description: Assay 2: In-Vitro Cell Proliferation Assay (A2780 cells, SRB readout, 72 hours).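 Also: viable cells counted via sulforhodamine B staining, absorbance at 570 nm, after 72 h exposure at 37 °C, DMSO 0.1% as control, media-only background subtracted.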 The format is cell-based. The conditions noted are these: A2780 cells, 72 hours, SRB, read-out: Cell Proliferation (IC50).

Like-named read-outs stand apart in the source and are kept apart here.

Sequence of NAMPT (P43490 whole entry): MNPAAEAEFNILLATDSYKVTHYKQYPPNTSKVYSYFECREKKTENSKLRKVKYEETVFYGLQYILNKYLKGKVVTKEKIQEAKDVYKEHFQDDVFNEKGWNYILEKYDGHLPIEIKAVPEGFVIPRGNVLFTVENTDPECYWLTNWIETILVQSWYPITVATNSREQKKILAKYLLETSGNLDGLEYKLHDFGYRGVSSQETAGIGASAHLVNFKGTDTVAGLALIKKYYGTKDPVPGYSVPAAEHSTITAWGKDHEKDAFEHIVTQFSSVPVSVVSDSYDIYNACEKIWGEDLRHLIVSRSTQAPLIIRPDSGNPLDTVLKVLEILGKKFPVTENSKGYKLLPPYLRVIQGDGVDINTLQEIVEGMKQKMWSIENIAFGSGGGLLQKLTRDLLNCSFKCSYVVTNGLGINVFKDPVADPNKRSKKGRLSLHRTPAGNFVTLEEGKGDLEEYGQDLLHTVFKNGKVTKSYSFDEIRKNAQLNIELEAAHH

For `O=C(NCc1ccc(S(=O)(=O)C2CCCOC2)cc1)c1cc2ccncc2o1` (stereo not drawn) [Example 275, N-[(4-tetrahydropyran-3-ylsulfonylphenyl)methyl]furo [2,3-c]pyridine-2-carboxamide], the IC50 is 30.4 nM at NAMPT and 50.3 nM in the test on A2780 cells (Homo sapiens, A2780, 72 h).
Turning to `O=C(NCc1ccc(S(=O)(=O)N2CC3CC2CO3)cc1)c1cc2ccncc2o1` (stereo not drawn) [Example 304, N-[[4-(2-oxa-5-azabicyclo[2.2.1]heptan-5-ylsulfonyl)phenyl]methyl]furo [2,3-c]pyridine-2-carboxamide], the IC50 at NAMPT was 65.2 nM; with A2780 cells (Homo sapiens, A2780, 72 h), 41.9 nM.
Taken in the same sequence, the figures for `O=C(NCc1ccc(S(=O)(=O)C2CCNCC2)cc1)c1cnc2[nH]ncc2c1` [Example 203, N-[[4-(4-piperidylsulfonyl)phenyl]methyl]-1H-pyrazolo[3,4-b]pyridine-5-carboxamide] were 669 nM and 731 nM.
In the case of `NC1CCN(S(=O)(=O)c2ccc(CNC(=O)c3cc4ccncc4s3)cc2)CC1` [Example 36, Thieno[2,3-c]pyridine-2-carboxylic acid 4-(4-amino-piperidine-1-sulfonyl)-benzylamide], the IC50 came out at 11.3 nM at NAMPT and 46.3 nM in the test on A2780 cells (Homo sapiens, A2780, 72 h).
With `O=C(NCc1ccc(S(=O)(=O)C2CCN(CC(F)(F)F)CC2)cc1)c1ccc2nccn2c1` [Example 65, Imidazo[1,2-a]pyridine-6-carboxylic acid 4-[1-(2,2,2-trifluoro-ethyl)-piperidine-4-sulfonyl]-benzylamide], the IC50 on NAMPT is 12.4 nM; in the test on A2780 cells, 2.1 nM.
Take `CN1CCC2(C1)CN(S(=O)(=O)c1ccc(CNC(=O)c3ccc4nccn4c3)cc1)C2` [Example 216, N-[[4-[(7-methyl-2,7-diazaspiro[3.4]octan-2-yl)sulfonyl]phenyl]methyl] imidazo[1,2-a]pyridine-6-carboxamide]: the IC50 is 30.4 nM at NAMPT and 13.7 nM with A2780 cells (Homo sapiens, A2780, 72 h).
For the compound `O=C(NCc1ccc(S(=O)(=O)N2CCC23COC3)cc1)c1cnc2[nH]ncc2c1` [Example 285, N-[[4-(6-oxa-1-azaspiro[3.3]heptan-1-ylsulfonyl)phenyl]methyl]-1H-pyrazolo[3,4-b]pyridine-5-carboxamide], the IC50 on NAMPT turned out to be 206 nM; in the test with A2780 cells (Homo sapiens, A2780, 72 h) it was 2000 nM.
Taken in the same sequence, the figures for `CC(C)N1CCC(S(=O)(=O)c2ccc(CNC(=O)c3cc4cnccc4[nH]3)cc2)CC1` [Example 340, N-[[4-[(1-isopropyl-4-piperidyl)sulfonyl]phenyl]methyl]-1H-pyrrolo[3,2-c]pyridine-2-carboxamide] were 88.5 nM and 26.6 nM.
Taken in the same sequence, the figures for `O=C(NCc1ccc(S(=O)(=O)N2CCC(F)(F)C2)cc1)c1ccc2nccn2c1` [Example 99, Imidazo[1,2-a]pyridine-6-carboxylic acid 4-(3,3-difluoro-pyrrolidine-1-sulfonyl)-benzylamide] were 15.8 nM and 7.7 nM.
Taken in the same sequence, the figures for `O=C(NCc1ccc(S(=O)(=O)C2CCN(C3COC3)CC2)cc1)c1cnc2nccn2c1` [Example 118, Imidazo[1,2-a]pyrimidine-6-carboxylic acid 4-(1-oxetan-3-yl-piperidine-4-sulfonyl)-benzylamide] were 4.1 nM and 121 nM.
Take `CC(=O)N1CCC(S(=O)(=O)c2ccc(CNC(=O)c3cnc4[nH]ncc4c3)cc2)CC1` [Example 228, N-[[4-(1-Acetylpiperidine-4-sulfonyl)phenyl]methyl]-1H-pyrazolo[3,4-b]pyridine-5-carboxamide]: the IC50 came out at 207 nM at NAMPT and 151 nM in the test with A2780 cells (Homo sapiens, A2780, 72 h).
Taken in the same sequence, the figures for `CC(C)CN1CCC([S+]([O-])c2ccc(CNC(=O)c3cc4cnccc4[nH]3)cc2)CC1` (racemic) [Example 182, 1H-Pyrrolo[3,2-c]pyridine-2-carboxylic acid 4-(l-isobutyl-piperidine-4-sulfinyl)-benzylamide] were 26.3 nM and 5.6 nM.
The corresponding values for `CN1CCC([S+]([O-])c2ccc(CNC(=O)c3cc4ccncc4o3)cc2)CC1` (stereo not drawn) [Example 379, N-[[4-[(1-methyl-4-piperidyl)sulfinyl]phenyl]methyl]furo[2,3-c]pyridine-2-carboxamide] are 114 nM and 41.4 nM.
On to `O=C(NCc1ccc(S(=O)(=O)C2CCN(C3COC3)CC2)cc1)c1ccc2nccn2c1` [Example 114, Imidazo[1,2-a]pyridine-6-carboxylic acid 4-(l-oxetan-3-yl-piperidine-4-sulfonyl)-benzylamide], for which the IC50 came to 19.4 nM at NAMPT and 5.6 nM in the test on A2780 cells (Homo sapiens, A2780, 72 h).
Take `CN1CCC2(C1)CN(S(=O)(=O)c1ccc(CNC(=O)c3cnc4[nH]ncc4c3)cc1)C2` [Example 283, N-[[4-[(7-methyl-2,7-diazaspiro[3.4]octan-2-yl)sulfonyl]phenyl]methyl]-1H-pyrazolo[3,4-b]pyridine-5-carboxamide]: the IC50 is 199 nM at NAMPT and 129 nM in the test with A2780 cells (Homo sapiens, A2780, 72 h).
Turning to `O=C(NCc1ccc(S(=O)(=O)N2CCC(F)(F)C2)cc1)c1cnc2[nH]ncc2c1` [Example 175, 1H-Pyrazolo[3,4-b]pyridine-5-carboxylic acid 4-(3,3-difluoro-pyrrolidine-1-sulfonyl)-benzylamide], the IC50 on NAMPT turned out to be 65.2 nM; in the test on A2780 cells (Homo sapiens, A2780, 72 h) it was 127 nM.
`O=C(NCc1ccc(S(=O)(=O)C2CCN(CC(F)(F)F)CC2)cc1)c1cc2ccncc2o1` [Example 212, N-[[4-[[1-(2,2,2-trifluoroethyl)-4-piperidyl]sulfonyl]phenyl]methyl]furo[2,3-c]pyridine-2-carboxamide]: the IC50 at NAMPT was 13.5 nM; in the test with A2780 cells (Homo sapiens, A2780, 72 h), 5.35 nM.
The corresponding values for `O=C(NCc1ccc(S(=O)(=O)C2CCCOC2)cc1)c1ccc2nccn2c1` (racemic) [Example 169, Imidazo[1,2-a]pyridine-6-carboxylic acid 4-(tetrahydro-pyran-3-sulfonyl)-benzylamide] are 32.9 nM and 19.9 nM.
Regarding `CC(C)(C)OC(=O)NCC12CC(CN1S(=O)(=O)c1ccc(CNC(=O)c3ccc4nccn4c3)cc1)C2` [Example 129, [2-(4-{[(Imidazo[1,2-a]pyridine-6-carbonyl)-amino]-methyl}-benzenesulfonyl)-2-aza-bicyclo[2.1.1]hex-1-ylmethyl]-carbamic acid tert-butyl ester], the IC50 on NAMPT worked out at 34 nM; in the test on A2780 cells (Homo sapiens, A2780, 72 h), 8.75 nM.
The corresponding values for `O=C(NCc1ccc(S(=O)(=O)N2CC3CCC(C2)O3)cc1)c1cnc2[nH]ncc2c1` [Example 27, 1H-Pyrazolo[3,4-b]pyridine-5-carboxylic acid 4-(8-oxa-3-aza-bicyclo[3.2.1]octane-3-sulfonyl)-benzylamide] are 142 nM and 132 nM.
For the compound `O=C(NCc1ccc(S(=O)(=O)N2CC(C3CCCNC3)c3ccccc32)cc1)c1ccc2nccn2c1` (stereo not drawn) [Example 330, N-[[4-[3-(3-piperidyl)indolin-1-yl]sulfonylphenyl]methyl] imidazo[1,2-a]pyridine-6-carboxamide], the IC50 came out at 22.2 nM at NAMPT and 42.8 nM in the test with A2780 cells (Homo sapiens, A2780, 72 h).
As for `O=C(NCc1ccc(S(=O)(=O)N2CCCC(O)C2)cc1)c1cc2cnccc2[nH]1` (racemic) [Example 35, 1H-Pyrrolo[3,2-c]pyridine-2-carboxylic acid 4-(3-hydroxy-piperidine-1-sulfonyl)-benzylamide], the IC50 on NAMPT was found to be 38.3 nM; with A2780 cells (Homo sapiens, A2780, 72 h), 35.1 nM.
The corresponding values for `O=C(NCc1ccc(S(=O)(=O)N2CCC2)cc1)c1ccc2nccn2c1` [Example 240, N-[[4-(azetidin-1-ylsulfonyl)phenyl]methyl] imidazo[1,2-a]pyridine-6-carboxamide] are 41 nM and 140 nM.
Taken in the same sequence, the figures for `C[C@@H]1CN(S(=O)(=O)c2ccc(CNC(=O)c3cc4ccncc4o3)cc2)C[C@H](C)N1C1COC1` [Example 286, N-[[4-[(3S,5R)-3,5-dimethyl-4-(oxetan-3-yl)piperazin-1-yl]sulfonylphenyl]methyl]furo [2,3-c]pyridine-2-carboxamide] were 14.5 nM and 0.488 nM.
On to `O=C(NCc1ccc(S(=O)(=O)N2CC3CCC(C2)O3)cc1)c1cc2cnccc2[nH]1` [Example 2, 1H-Pyrrolo[3,2-c]pyridine-2-carboxylic acid 4-(8-oxa-3-aza-bicyclo[3.2.1]octane-3-sulfonyl)-benzylamide], for which the IC50 at NAMPT was 28.1 nM; with A2780 cells (Homo sapiens, A2780, 72 h) it was 13.8 nM.
Taken in the same sequence, the figures for `CC1(O)CCN(S(=O)(=O)c2ccc(CNC(=O)c3ccc4nccn4c3)cc2)C1` (racemic) [Example 161, Imidazo[1,2-a]pyridine-6-carboxylic acid 4-(3-hydroxy-3-methyl-pyrrolidine-1-sulfonyl)-benzylamide] were 52.1 nM and 47.2 nM.
Taken in the same sequence, the figures for `O=C(NCc1ccc(S(=O)(=O)N2CCC(O)CC2)cc1)c1ccc2nccn2c1` [Example 28, Imidazo[1,2-a]pyridine-6-carboxylic acid 4-(4-hydroxy-piperidine-1-sulfonyl)-benzylamide] were 23.5 nM and 27.6 nM.
With `O=C(NCc1ccc(S(=O)(=O)N2CCN(C3CCOCC3)CC2)cc1)c1cc2ccncc2o1` [Example 170, Furo[2,3-c]pyridine-2-carboxylic acid 4-[4-(tetrahydro-pyran-4-yl)-piperazine-1-sulfonyl]-benzylamide], the IC50 on NAMPT came out at 30.4 nM; in the test on A2780 cells (Homo sapiens, A2780, 72 h) it was 11.9 nM.
With `O=C(NCc1ccc(S(=O)(=O)N2CC3CCNC3C2)cc1)c1ccc2nccn2c1` (stereo not drawn) [Example 332, N-[[4-(2,3,3a,4,6,6a-hexahydro-1H-pyrrolo[3,4-b]pyrrol-5-ylsulfonyl)phenyl]methyl] imidazo[1,2-a]pyridine-6-carboxamide], the IC50 worked out at 174 nM at NAMPT and 171 nM in the test with A2780 cells (Homo sapiens, A2780, 72 h).
On to `O=C(NCc1ccc(S(=O)(=O)N2CC3(CCOC3)C2)cc1)c1ccc2nccn2c1` [Example 220, N-[[4-(6-oxa-2-azaspiro[3.4]octan-2-ylsulfonyl)phenyl]methyl] imidazo[1,2-a]pyridine-6-carboxamide], for which the IC50 worked out at 25 nM at NAMPT and 16.8 nM in the test with A2780 cells (Homo sapiens, A2780, 72 h).

For the origin of these results see patent US10696692B2, “Amido-benzyl sulfone and sulfoxide derivates” (Forma TM, LLC, priority 2012, dated 2020).
